Source: patent US7452695B2, “Methods for increasing polypeptide production” (Immunex Corporation, priority 2002, dated 2008)
“And” between values parts separate entries of the source, which are not always exact repeats. Equal entries are not always repeated. Where two headings read alike, the source gives them in different places.

Key:
[1] = system: CHO cells stably transformed with nucleic acids encoding RANK:Fc; experiment: Production of RANK:Fc with HMBA, caffeine and/or butyric acid, shaker flask, 5 days at 31° C. (Example 8); format: cell-based, Chinese hamster
Description: Nucleic acids encoding RANK:Fc inserted into a suitable vector (as described in International Application WO 01/36637) were introduced into CHO cells. […] Cells were grown for a total of 5 days in shaker flasks. Thereafter, all medium was harvested. The number of cells present in the culture was determined by staining with trypan blue and counting the cells in a hemocytometer. […] An average number of cells in the culture was calculated by averaging the starting and ending cell numbers. Specific productivity was determined from the total number of micrograms of RANK:Fc produced, an average cell number (calculated as described above), and the number of days of growth. Nucleic acids encoding RANK:Fc inserted into a suitable vector (as described in International Application WO 01/36637) were introduced into CHO cells. […] Cells were grown for a total of 5 days in a shaker flask. Thereafter, all medium was harvested. The number of cells present in the culture, the titer of RANK:Fc per milliliter of harvested medium, and specific productivity were determined as described above in Example 7.

[2] = system: CHO cells stably transformed with nucleic acids encoding a type II IL-1 receptor; experiment: Production of type II IL-1 receptor with HMBA in a bioreactor (Example 9); format: cell-based, Chinese hamster; conditions: 2 mM, added at shift to 31° C. after 2 days at 37° C., 12 more days
Description: About 500 thousand cells from a stably transformed line were inoculated into a one liter of serum-free medium in a bioreactor. Cells were grown for two days at 37° C. Thereafter, cells were shifted to 31° C., either without HMBA or in the presence of 2 mM HMBA, and grown for 12 more days. Thereafter, all medium was harvested. […] Data from this experiment are shown in Table 6 as a percentage of the average of the protein titers obtained from the two samples without HMBA rounded to the nearest whole number.

[3] = system: CHO cells stably transformed with nucleic acids encoding RANK:Fc; experiment: Production of RANK:Fc with varying amounts of HMBA, shaker flasks, 5 days at 31° C. (Example 7); format: cell-based, Chinese hamster
Description: Nucleic acids encoding RANK:Fc inserted into a suitable vector (as described in International Application WO 01/36637) were introduced into CHO cells. […] Cells were grown for a total of 5 days in shaker flasks. Thereafter, all medium was harvested. The number of cells present in the culture was determined by staining with trypan blue and counting the cells in a hemocytometer. […] An average number of cells in the culture was calculated by averaging the starting and ending cell numbers. Specific productivity was determined from the total number of micrograms of RANK:Fc produced, an average cell number (calculated as described above), and the number of days of growth.

[4] = system: CHO cells stably transformed with nucleic acids encoding an antibody against a murine IL-4 receptor
[5] = system: cell line #9; experiment: Induction effects of xanthine derivatives in cell line #9, shake flasks, 6 days at 31° C. (Example 5); format: cell-based, Chinese hamster; conditions: for protein titer compared with the no inducer control culture: concentrations of Table 3 (0.1-1 mM xanthines; 0.5 mM butyrate)
Description: To dissolve 3-isobutyl-1-methylxanthine (IBX), it was solubilized in water heated to almost the boiling point, and quickly added to the flasks before it precipitated. […] The induction phase of the cell culture was carried out for 6 days at 31° C., and samples were removed for analysis at 3 day and 6 day timepoints.

[6] = system: CHO cell production line genetically engineered to express TNFR:Fc (cell line #5); experiment: Induction of TNFR:Fc expression, shaker flasks, 5 days at 31° C. (Example 1); format: cell-based, Chinese hamster
Description: CHO cells were grown in spinner flasks at 37° C. using serum-free growth medium containing methotrexate. […] The cells, at initial cell densities of 2×10^6 cells/ml in 20 ml, were placed in 125 ml plastic Erlenmeyer flasks with plug seal caps and placed on shaker platforms in incubators set to the appropriate temperatures. Cell viability and number were monitored by haemocytometer counting using trypan blue dye. Recombinant polypeptide titers were assessed by ELISA-based assays. […] A flask containing no inducing compound was also included. The shaker flasks were incubated in this induction phase for 5 days at 31° C. in incubators without carbon dioxide control.

CCCC(=O)O [Butyric acid, butyric acid]
Specific productivity (μg/10^6 cells/day) ([1]; 0.5 mM): 31.6 μg/10^6 cells/day | Titer of RANK: Fc ([1]; 0.5 mM): 476 µg/mL

CC(=O)NCCCCCCNC(C)=O [HMBA, hexamethylene bisacetamide]
Relative Titer of type II IL-1 Receptor (percent of average of samples without HMBA) [2]: 120% and 125% | Specific productivity (μg/10^6 cells/day) ([3]; 0.1 mM): 19.1 μg/10^6 cells/day | Titer of RANK: Fc ([3]; 0.1 mM): 243 µg/mL | Specific productivity (μg/10^6 cells/day) ([3]; 0.5 mM): 19.5 μg/10^6 cells/day | Titer of RANK: Fc ([3]; 0.5 mM): 347 µg/mL | Specific productivity (μg/10^6 cells/day) ([3]; 2.0 mM): 23.9 μg/10^6 cells/day | Titer of RANK: Fc ([3]; 2.0 mM): 444 µg/mL | Specific productivity (μg/10^6 cells/day) ([1]; 2 mM): 22.8 μg/10^6 cells/day | Titer of RANK: Fc ([1]; 2 mM): 410 µg/mL | production of the antibody compared with no inducer ([4]; 2 mM): enhanced production of the antibody | extent of enhancement of antibody production compared with sodium butyrate (0.5 mM) ([4]; 2 mM, 31° C.): to a greater extent than did sodium butyrate

CC(C)Cn1c(=O)n(C)c(=O)c2[nH]cnc21 [IBX, 3-isobutyl-1-methylxanthine]
Titer (μg/ml) Day 3 ([5]; 0.5 mM): 150 µg/mL | Titer (μg/ml) Day 6 ([5]; 0.5 mM): 420 µg/mL | production compared with caffeine ([5]; 0.5 mM): even better than caffeine

Cn1c(=O)c2[nH]cnc2n(C)c1=O [aminophylline, theophylline compound with 1,2-ethylenediamine (2:1) dihydrate]
Titer (μg/ml) Day 3 ([5]; 0.1 mM): 110 µg/mL | Titer (μg/ml) Day 6 ([5]; 0.1 mM): 260 µg/mL | Titer (μg/ml) Day 3 ([5]; 0.5 mM): 120 µg/mL | Titer (μg/ml) Day 6 ([5]; 0.5 mM): 250 µg/mL | Titer (μg/ml) Day 3 ([5]; 1 mM): 100 µg/mL | Titer (μg/ml) Day 6 ([5]; 1 mM): 200 µg/mL | protein titer compared with the no inducer control culture [5]: did not induce protein titers above that seen in the no inducer control culture

CCCC(=O)[O-].[Na+] [butyrate, sodium butyrate]
Titer (μg/ml) Day 3 ([5]; 0.5 mM): 100 µg/mL | Titer (μg/ml) Day 6 ([5]; 0.5 mM): 220 µg/mL | protein titer compared with the no inducer control culture [5]: does not induce increased protein titer over that seen in a culture with no inducer | rate (in μg protein/10^6 cells/day) relative to control cultures ([6]; 0.2 mM): about 1.07 times the rate of control cultures | total protein (in μg/ml) relative to control culture ([6]; 0.2 mM): about 1.11 times the total protein produc | production of the antibody compared with no inducer ([4]; 0.5 mM): enhanced production of the antibody

Cn1c(=O)c2c(ncn2C)n(C)c1=O [caffeine, 1,3,7-trimethylxanthine]
rate of production compared with 0.2 mM butyrate culture ([6]; 0.5 mM): slightly higher rates of production | rate of productivity per cell compared with no inducing agent ([6]; 2 mM): higher | Specific productivity (μg/10^6 cells/day) ([1]; 1 mM): 23.6 μg/10^6 cells/day | Titer of RANK: Fc ([1]; 1 mM): 362 µg/mL

Cn1cnc2c1c(=O)[nH]c(=O)n2C [theobromine, 3,7-dimethylxanthine]
Titer (μg/ml) Day 3 ([5]; 0.1 mM): 90 µg/mL | Titer (μg/ml) Day 6 ([5]; 0.1 mM): 270 µg/mL | Titer (μg/ml) Day 3 ([5]; 0.5 mM): 100 µg/mL | Titer (μg/ml) Day 6 ([5]; 0.5 mM): 260 µg/mL | Titer (μg/ml) Day 3 ([5]; 1 mM): 100 µg/mL | Titer (μg/ml) Day 6 ([5]; 1 mM): 260 µg/mL | protein titer compared with the no inducer control culture [5]: did not induce protein titers above that seen in the no inducer control culture
